Reference: PMC7044277 (Nature Communications, 2020)
Several values for one entry are separate records, joined by “and”; a condition that tells them apart may be missing. Equal values may be shown once.

Key:
Assay type in all cases: cell-based
Set-up in all cases: GPCRome screening signal at PTGIR / GPCRome screening signal at PTH1R / GPCRome screening signal at PTH2R / GPCRome screening signal at QRFP / GPCRome screening signal at RXFP2 / GPCRome screening signal at RXFP3 / GPCRome screening signal at RXFP4 / GPCRome screening signal at S1PR2 / GPCRome screening signal at S1PR3 / GPCRome screening signal at S1PR4 / GPCRome screening signal at S1PR5 / GPCRome screening signal at SCTR / GPCRome screening signal at SSTR2 / GPCRome screening signal at SSSTR / GPCRome screening signal at SSTR4 / GPCRome screening signal at SSTR5 / GPCRome screening signal at SUCNR1 / GPCRome screening signal at TA1 / GPCRome screening signal at TAAR2 / GPCRome screening signal at TAAR5 / GPCRome screening signal at TAAR6 / GPCRome screening signal at TAAR8 / GPCRome screening signal at TACR1 / GPCRome screening signal at TACR2 / GPCRome screening signal at TACR3 / GPCRome screening signal at TBXA2R / GPCRome screening signal at TSHR / GPCRome screening signal at UTS2R / GPCRome screening signal at VIPR2 / GPCRome screening signal at GPR68 no V2 Tail / GPCRome screening signal at GRM2 / GPCRome screening signal at GRM3: reference not given here
320 non-olfactory GPCRs [1] = target: T1, 320 non-olfactory GPCRs (Homo sapiens, UniProt P21731); conditions: receptor TBXA2R
T1 construct: expressed in transfected cells; host or cells: HTLA cells
T1 sequence (P21731 whole entry): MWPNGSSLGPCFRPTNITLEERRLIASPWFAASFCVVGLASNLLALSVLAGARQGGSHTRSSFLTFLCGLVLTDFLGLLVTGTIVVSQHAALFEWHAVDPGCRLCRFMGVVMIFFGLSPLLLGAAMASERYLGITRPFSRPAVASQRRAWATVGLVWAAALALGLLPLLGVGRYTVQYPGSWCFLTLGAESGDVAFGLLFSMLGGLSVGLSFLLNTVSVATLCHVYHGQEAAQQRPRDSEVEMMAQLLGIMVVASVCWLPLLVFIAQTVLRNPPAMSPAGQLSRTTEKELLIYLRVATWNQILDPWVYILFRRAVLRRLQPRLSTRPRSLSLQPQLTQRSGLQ

320 non-olfactory GPCRs [2] = target: T2, 320 non-olfactory GPCRs (Homo sapiens, UniProt P32241); conditions: receptor VIPR1
T2 construct: expressed in transfected cells; host or cells: HTLA cells
T2 sequence (P32241 31-457): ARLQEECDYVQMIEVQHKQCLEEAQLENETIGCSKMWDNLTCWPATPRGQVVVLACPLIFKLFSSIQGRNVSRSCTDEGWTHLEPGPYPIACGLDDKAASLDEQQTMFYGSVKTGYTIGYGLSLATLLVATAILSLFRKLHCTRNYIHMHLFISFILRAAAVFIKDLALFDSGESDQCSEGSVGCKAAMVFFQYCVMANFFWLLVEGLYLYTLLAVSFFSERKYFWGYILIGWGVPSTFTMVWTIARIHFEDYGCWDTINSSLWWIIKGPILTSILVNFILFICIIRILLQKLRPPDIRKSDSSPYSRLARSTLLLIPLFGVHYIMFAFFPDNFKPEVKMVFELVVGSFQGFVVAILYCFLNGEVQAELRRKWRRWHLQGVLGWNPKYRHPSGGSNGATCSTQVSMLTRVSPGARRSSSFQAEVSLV

320 non-olfactory GPCRs [3] = target: 320 non-olfactory GPCRs (Homo sapiens, UniProt P35346); conditions: receptor SSTR5
Sequence of 320 non-olfactory GPCRs (Homo sapiens, UniProt P35346) (P35346 whole entry): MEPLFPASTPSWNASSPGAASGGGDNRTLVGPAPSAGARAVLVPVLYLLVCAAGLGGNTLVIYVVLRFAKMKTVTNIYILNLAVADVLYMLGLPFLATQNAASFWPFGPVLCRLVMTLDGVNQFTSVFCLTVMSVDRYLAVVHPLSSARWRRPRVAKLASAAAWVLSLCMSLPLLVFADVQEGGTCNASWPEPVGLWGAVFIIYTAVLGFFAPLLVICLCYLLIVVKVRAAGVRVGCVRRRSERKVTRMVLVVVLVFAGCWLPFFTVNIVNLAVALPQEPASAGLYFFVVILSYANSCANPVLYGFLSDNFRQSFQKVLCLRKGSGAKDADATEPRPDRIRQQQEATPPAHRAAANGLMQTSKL

320 non-olfactory GPCRs [4] = target: T3, 320 non-olfactory GPCRs (Homo sapiens, UniProt Q8TDU9); conditions: receptor RXFP4
T3 construct: expressed in transfected cells; host or cells: HTLA cells
T3 sequence (Q8TDU9 whole entry): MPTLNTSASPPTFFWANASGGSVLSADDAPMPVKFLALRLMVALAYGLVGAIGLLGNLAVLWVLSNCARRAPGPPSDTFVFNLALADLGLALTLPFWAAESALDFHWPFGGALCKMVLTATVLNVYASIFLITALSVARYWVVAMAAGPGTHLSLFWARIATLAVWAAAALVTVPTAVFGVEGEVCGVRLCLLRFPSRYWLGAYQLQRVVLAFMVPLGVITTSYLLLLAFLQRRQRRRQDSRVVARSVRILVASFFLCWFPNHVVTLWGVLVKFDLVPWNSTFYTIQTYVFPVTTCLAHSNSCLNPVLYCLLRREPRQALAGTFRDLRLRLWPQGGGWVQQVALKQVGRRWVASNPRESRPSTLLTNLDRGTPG

[5] = Fig_5f, single replicate values
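For GPCRome agonism screen response in this document: fold over basal response of each receptor without drug.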

Row | GPCRome screening signal at TBXA2R (320 non-olfactory GPCRs [1]; [5]) | GPCRome screening signal at VIPR1 (320 non-olfactory GPCRs [2]; [5]) | GPCRome screening signal at SSTR5 (320 non-olfactory GPCRs [3]; [5]) | GPCRome screening signal at RXFP4 (320 non-olfactory GPCRs [4]; [5]) | SMILES | GPCRome agonism screen response (320 non-olfactory GPCRs [1]; replicate values, Fig_4g) | GPCRome agonism screen response (320 non-olfactory GPCRs [2]; replicate values, Fig_4g) | GPCRome agonism screen response (320 non-olfactory GPCRs [3]; replicate values, Fig_4g) | GPCRome agonism screen response (320 non-olfactory GPCRs [4]; replicate values, Fig_4g)
1 | – | – | – | – | CCOc1cccc2cc(C(C)NCC3(O)CCCCC3)oc12 (centres unmarked) [O4LE6] | 0.6818 and 0.496 and 0.4453 and 0.576 | 0.8893 and 1.908 and 1.195 and 1.527 | 1.067 and 0.3371 and 0.8014 and 0.9752 | 0.5888 and 1.446 and 0.8124 and 1.384
2 | 1.076 and 0.505 and 0.6523 and 0.5698 | 1.328 and 1.861 and 1.314 and 1.467 | 1.884 and 1.207 and 1.033 and 0.572 | 0.4319 and 1.123 and 0.5997 and 0.5278 | CCOc1ccccc1CCC(C)NCC1(O)CCCCC1.Cl (racemic) [Fig_5f] | – | – | – | –
